According to ChEMBL document CHEMBL4725344, “Development of Highly Potent Carbazole Amphiphiles as Membrane-Targeting Antimicrobials for Treating Gram-Positive Bacterial Infections” (J Med Chem, 2020):
Converted amounts (≈) assume the structure as drawn.

What was measured:
[1] = Cytotoxicity against mouse J774.A1 cells assessed as cell viability at […] ug/ml measured after 24 hrs by CCK8 assay relative to control; format: cell-based; settings: dose 1.56 µg/ml, read-out: Activity
Staphylococcus aureus [2] = experiment: Antibacterial activity against Staphylococcus aureus ATCC 29213 infected in cyclophosphamide-immunosuppressed C57BL6 mouse cornea assessed as log reduction in corneal bacterial count at 5% administered as topical solution for 4 times per day for 3 days and measured post-last dose by standard plate counting method; format: functional; settings: time 3 day
Staphylococcus aureus [3] = experiment: Antibacterial activity against methicillin-resistant Staphylococcus aureus N315 measured after 24 hrs by microplate reader analysis; format: functional
Staphylococcus aureus [4] = experiment: Bactericidal activity against Staphylococcus aureus ATCC 29213 assessed as log reduction in bacterial count at 4 times MIC preincubated for 4 hrs followed by replating on MHA medium measured after 24 hrs by time kill assay; format: functional; settings: time 28 hrs
[5] = Cytotoxicity against mouse J774.A1 cells assessed as cell viability at 100 ug/ml measured after 24 hrs by CCK8 assay relative to control; format: cell-based; settings: at 100 µg/mL, read-out: Activity
[6] = Cytotoxicity against mouse J774.A1 cells assessed as cell viability at 6.25 ug/ml measured after 24 hrs by CCK8 assay relative to control; format: cell-based; settings: at 6.25 µg/mL, read-out: Activity
Staphylococcus aureus [7] = experiment: Bactericidal activity against Staphylococcus aureus ATCC 29213 assessed as log reduction in bacterial count at 8 times MIC preincubated for 4 hrs followed by replating on MHA medium measured after 24 hrs by time kill assay; format: functional; settings: time 28 hrs
[8] = Cytotoxicity against mouse J774.A1 cells assessed as cell viability at 3.125 ug/ml measured after 24 hrs by CCK8 assay relative to control; format: cell-based; settings: at 3.125 µg/mL, read-out: Activity
[9] = Cytotoxicity against mouse J774.A1 cells assessed as cell viability at 12.5 ug/ml measured after 24 hrs by CCK8 assay relative to control; format: cell-based; settings: at 12.5 µg/mL, read-out: Activity
[10] = Cytotoxicity against mouse J774.A1 cells assessed as cell viability at 25 ug/ml measured after 24 hrs by CCK8 assay relative to control; format: cell-based; settings: at 25 µg/mL, read-out: Activity
[11] = Cytotoxicity against mouse J774.A1 cells assessed as cell viability at 50 ug/ml measured after 24 hrs by CCK8 assay relative to control; format: cell-based; settings: at 50 µg/mL, read-out: Activity
Staphylococcus aureus [12] = experiment: Antibacterial activity against methicillin-resistant Staphylococcus aureus NCTC 10442 measured after 24 hrs by microplate reader analysis; format: functional
Staphylococcus aureus [13] = experiment: Antibacterial activity against Staphylococcus aureus ATCC 29213 measured after 24 hrs by microplate reader analysis; format: functional
[14] = Selectivity ratio of MIC for Staphylococcus aureus ATCC 29213 to MIC for Bacillus subtilis CMCC 63501; format: functional
[15] = Selectivity ratio of MIC for methicillin-resistant Staphylococcus aureus NCTC 10442 to MIC for Staphylococcus epidermidis CMCC 26069; format: functional
[16] = Selectivity ratio of MIC for methicillin-resistant Staphylococcus aureus NCTC 10442 to MIC for Bacillus subtilis CMCC 63501; format: functional
Bacillus subtilis = experiment: Antibacterial activity against Bacillus subtilis CMCC 63501 measured after 24 hrs by microplate reader analysis; format: functional
[17] = Selectivity ratio of MIC for methicillin-resistant Staphylococcus aureus N315 to MIC for Staphylococcus epidermidis ATCC 12228; format: functional
[18] = Selectivity ratio of MIC for Staphylococcus aureus ATCC 29213 to MIC for Staphylococcus epidermidis ATCC 12228; format: functional
Bacillus spizizenii = experiment: Antibacterial activity against Bacillus subtilis ATCC 6633 measured after 24 hrs by microplate reader analysis; format: functional
[19] = Selectivity ratio of MIC for methicillin-resistant Staphylococcus aureus N315 to MIC for Bacillus subtilis ATCC 6633; format: functional
[20] = Selectivity ratio of MIC for Staphylococcus aureus ATCC 29213 to MIC for Bacillus subtilis ATCC 6633; format: functional
[21] = Selectivity ratio of MIC for Staphylococcus aureus ATCC 29213 to MIC for Staphylococcus epidermidis CMCC 26069; format: functional
[22] = tested on: Staphylococcus epidermidis; experiment: Antibacterial activity against Staphylococcus epidermidis CMCC 26069 measured after 24 hrs by microplate reader analysis; format: functional
[23] = Selectivity ratio of MIC for methicillin-resistant Staphylococcus aureus NCTC 10442 to MIC for Bacillus subtilis ATCC 6633; format: functional
[24] = Selectivity ratio of MIC for methicillin-resistant Staphylococcus aureus N315 to MIC for Bacillus subtilis CMCC 63501; format: functional
[25] = Selectivity ratio of MIC for methicillin-resistant Staphylococcus aureus NCTC 10442 to MIC for Staphylococcus epidermidis ATCC 12228; format: functional
[26] = Selectivity ratio of MIC for methicillin-resistant Staphylococcus aureus N315 to MIC for Staphylococcus epidermidis CMCC 26069; format: functional
[27] = Hemolytic activity in rabbit erythrocytes measured after 1 hr by microplate reader analysis; format: ADME, cell-based, Oryctolagus cuniculus, Erythrocyte
[28] = tested on: Staphylococcus epidermidis; experiment: Antibacterial activity against Staphylococcus epidermidis ATCC 12228 measured after 24 hrs by microplate reader analysis; format: functional

Structure (SMILES) | MIC (Staphylococcus aureus [3]) | MIC (Staphylococcus aureus [12]) | MIC (Staphylococcus aureus [13]) | Selectivity ratio [14] | Selectivity ratio [15] | Selectivity ratio [16] | MIC (Bacillus subtilis) | Selectivity ratio [17] | Selectivity ratio [18] | MIC (Bacillus spizizenii) | Selectivity ratio [19] | Selectivity ratio [20] | Selectivity ratio [21] | MIC [22] | Selectivity ratio [23] | Selectivity ratio [24] | Selectivity ratio [25] | Selectivity ratio [26] | HC50 at 1 h [27] | MIC [28] | also measured
CN[C@H](CC(C)C)C(=O)N[C@H]1C(=O)N[C@@H](CC(N)=O)C(=O)N[C@H]2C(=O)N[C@H]3C(=O)N[C@H](C(=O)N[C@H](C(=O)O)c4cc(O)cc(O)c4-c4cc3ccc4O)[C@H](O)c3ccc(c(Cl)c3)Oc3cc2cc(c3O[C@@H]2O[C@H](CO)[C@@H](O)[C@H](O)[C@H]2O[C@H]2C[C@](C)(N)[C@H](O)[C@H](C)O2)Oc2ccc(cc2Cl)[C@H]1O [VANCOMYCIN] | 1.56 µg/mL (≈ 1.08 µM) | 1.56 µg/mL (≈ 1.08 µM) | 0.78 µg/mL (≈ 0.538 µM) |  |  |  |  |  |  |  |  |  |  |  |  |  |  |  |  |  | viability at 24 h, 1.56 ug/ml [1]: 101%; log(activity) (Staphylococcus aureus [2]): 3.99; log(activity) (Staphylococcus aureus [4]): 0.71; viability at 24 h, 100 ug/ml [5]: 89.9%; viability at 24 h, 6.25 ug/ml [6]: 99.5%; log(activity) (Staphylococcus aureus [7]): 1.45; viability at 24 h, 3.125 ug/ml [8]: 99.8%; viability at 24 h, 12.5 ug/ml [9]: 98.2%; viability at 24 h, 25 ug/ml [10]: 92%; viability at 24 h, 50 ug/ml [11]: 91%
CC(C)=CCn1c2ccccc2c2c(OCC(O)CNC(=O)[C@@H](N)CCCCN)cccc21 (stereo partly drawn) | 12.5 µg/mL (≈ 27.6 µM) | 25 µg/mL (≈ 55.2 µM) | 25 µg/mL (≈ 55.2 µM) | 2 | 2 | 2 | 6.25 µg/mL (≈ 13.8 µM) | 2 | 2 | 6.25 µg/mL (≈ 13.8 µM) | 2 | 2 | 2 | 6.25 µg/mL (≈ 13.8 µM) | 2 | 2 | 2 | 2 | > 200 µg/mL | 6.25 µg/mL (≈ 13.8 µM) | 
CC(C)=CCn1c2ccccc2c2c(OCC(O)CNC(=O)[C@@H](N)CCCNC(=N)N)cccc21 (stereo partly drawn) | 6.25 µg/mL (≈ 13 µM) | 6.25 µg/mL (≈ 13 µM) | 6.25 µg/mL (≈ 13 µM) | 2 | 2 | 2 | 3.12 µg/mL (≈ 6.5 µM) | 2 | 2 | 3.12 µg/mL (≈ 6.5 µM) | 2 | 2 | 2 | 3.12 µg/mL (≈ 6.5 µM) | 2 | 2 | 2 | 2 | > 200 µg/mL | 3.12 µg/mL (≈ 6.5 µM) | 
